{"source": "patent US7238469B2", "about": "“Carbon monoxide improves outcomes in tissue and organ transplants and suppresses apoptosis” (priority 2001, dated 2007)", "key": {"[1]": {"test_system": "mouse hearts transplanted into rats", "test": "Immunohistology of cardiac grafts (thrombosis, apoptosis)", "type": "in vivo, BALB/c mouse hearts, Lewis rats", "settings": "for vascular thrombosis in graft: 3 days after transplantation", "method": "Grafts were harvested 3 days after transplantation, snap-frozen in liquid nitrogen, and stored at −80° C. Cryostat sections were fixed and stained as described previously (Soares et al, Nature Med. 4:1073, 1998). Rat leukocyte populations were analyzed by using anti-rat leukocyte common Ag (LCA, CD45; OX-1), Éé TCR (TCRÉé-chains; R73), B cell (CD45RB; OX-33), NK cell (NKR-P1; 3.2.3), and MΦ (CD68; ED-1), mAbs (Serotec, Harlan Bioproducts for Science, Indianapolis, Ind.). Detection of fibrin/fibrinogen was conducted by using a rabbit anti-human fibrin/fibrinogen polyclonal Ab (Dako, Carpinteria, Calif.). Intragraft complement activation was detected by using an anti-rat Clq (The Binding Site, Birmigham, U. K.), C3 (ED11; Serotec), or C5b-9 mAb (Dako). Rat IgM was detected by using the mouse anti-rat IgM mAb MARM-4 (a kind gift of Dr. H. Bazin, University of Louvain, Brussels, Belgium). Isotype-matched mAbs or purified Ig, as well as a control for residual endogenous peroxidase activity, were included in each experiment. Detection of apoptosis was carried out by using ApopTagO in situ apoptosis detection kit (Oncor, Gaithersburg, Md.) according to the manufacturer's instructions.\nMouse hearts were transplanted into CVF plus CsA-treated rats. SnPPIX or FePPIX was administered and graft recipients were exposed to CO (250–400 ppm). Grafts were harvested 3 days after transplantation (n=3 per group) and stained for rat IgM, rat and mouse complement C1q, rat and mouse P-selectin, rat and mouse fibrin/fibrinogen, and rat CD45 expressing leukocytes. […] HO-2, HO-1, and ferritin were detected in graft endothelial and smooth muscle cells as well as in cardiac myocytes (data not shown). There was only minimal vascular thrombosis or infiltration by host leukocytes usually associated with focal areas of infarction (data not shown). There was low but detectable P-selectin expression on the vascular endothelium (data not shown). […] Thrombi were consistently observed in large coronary vessels at the base of the heart. There were no detectable P-selectin-expressing platelet aggregates in the microvasculature (data not shown). There was extensive graft infiltration by host neutrophils as well as by CD45^++ leukocytes expressing the monocyte/MΦ marker CD68/ED-1 and MHC class II Ags (data not shown). Infiltrating monocyte/MΦ were found near arterioles and scattered throughout the myocardium, associated with areas of infarction."}, "βTC3 cells": {"test_system": "βTC3 cells", "test": "TNF-α mediated apoptosis of β-gal transfected βTC3 cells (percentage of viable cells)", "type": "cell-based, murine", "method": "The murine insulinoma cell line βTC3 (DSMZ, Braunschweig, Germany) was cultured in Dulbecco's Modified Eagle's Medium (DMEM) (Life Technologies, Grand Island, N.Y., USA) supplemented with 2 mM L-glutamine, 100 U/ml penicillin G, 100 U/ml streptomycin and 10% Fetal Calf Serum (FCS) (Life Technologies) and incubated in humidified 5% CO2/95% air at 37° C. This murine β-cell line, derived from transgenic mice carrying a hybrid insulin-promoter simian virus 40 tumor antigen, is known to maintain the features of differentiated β-cells for about 50 passages in culture. […] Compared to other frequently used transformed β-cell lines such as RIN-m5F and HIT, levels of secreted insulin are closer to normal β-cells in the βTC3 cell line. Thus, these cells are useful for studying β-cell regulation and gene expression (D'Ambra et al., Endocrinology 726:2815–22, 1990).\nβTC3 were seeded at 3×10^5 cells in 16 mm wells and transfected 15 to 20 hours later using Lipofectamine plus™ reagents (Life Technologies) according to the manufacturer's instructions. Total DNA was maintained constant using empty pcDNA3 vector. The percentage of viable cells was assessed by normalizing the percentage of viable cells of each DNA preparation to the number of control-transfected cells without the apoptotic stimulus (100% viability) (Soares et al., Nature Med. 4:1073–1077, 1998; Sato et al., J. Immunol. 166:4185–4194, 2001).\nMurine recombinant TNF-α (R&D Systems) was dissolved in PBS with 1% bovine serum albumin and added to the culture medium (17.5 ng/ml=500 U) 24 hours after transfection. The caspase-3 inhibitor Z-DEVD-FMK and the caspase-8 inhibitor IETD-CHO (Calbiochem, San Diego, Calif.) were dissolved in dimethyl sulphoxide (DMSO, Sigma) and added to the culture medium (10 μM and 1 μM respectively) two hours before treatment with TNF-α. Tin protoporphyrin (SnPPIX) (Porphyrin Products, Logan, Utah) was dissolved (10 mM) in 100 mM NaOH and added 6 hours after transfection to the culture medium (50 μM). The guanylyl cyclase inhibitor 1H[1,2,4]oxadiazolo[4,3-α]quinoxalin-1 (ODQ; Calbiochem) was dissolved in DMSO and added to the culture medium (100 μM) 6 hours after transfection. The cGMP analogue 8-bromoguanosine-3′-5′-cyclic-monophosphate (8-Br-cGMP) (Sigma) was dissolved in water and added to the culture medium (10 μM) 30 minutes before induction of apoptosis. The protein kinase G inhibitor KT5823 (Calbiochem) was dissolved in DMSO and added to the culture medium (1.6 μM) 6 hours after transfection.\nCells and islets were exposed to 1% carbon monoxide in compressed air balanced with 5% CO2, as described elsewhere (see, e.g., Otterbein et al., Nature Med. 6:422–428, 2000). Islets were incubated in RPMI medium pre-saturated with carbon monoxide (4° C. overnight, 1% CO, 5% CO2) for two hours at 37° C. while treatment with 1% CO, 5% CO2 was continued."}, "[2]": {"settings": "rats treated with SnPPIX or FePPIX"}}, "data": [{"compound": "[C-]#[O+]", "note": "[CO, carbon monoxide]", "values": [{"measurement": "vascular thrombosis in graft", "setting": "[1]; SnPPIX-treated rats exposed to CO 250–400 ppm", "value": "no signs of vascular thrombosis"}, {"measurement": "apoptosis in transplanted mouse hearts", "setting": "[1]; rats treated with SnPPIX and exposed to CO", "value": "Apoptosis did not occur"}, {"measurement": "effect on β-cell apoptosis induced by etoposide or serum starvation", "setting": "βTC3 cells; 1% CO", "value": "suppressed"}, {"measurement": "effect on β-cell apoptosis, CO exposure immediately after TNF-α", "setting": "βTC3 cells; 1% CO for one hour, tested 24 hours later", "value": "sufficient to prevent β-cell apoptosis"}, {"measurement": "effect on β-cell apoptosis, CO exposure after induction of apoptosis", "setting": "βTC3 cells; 1% CO for one hour, two hours after TNF-α stimulation", "value": "still able to suppress β-cell apoptosis"}, {"measurement": "effect on TNF-α mediated apoptosis", "setting": "βTC3 cells; 1% CO, action of HO-1 suppressed by SnPPIX", "value": "suppressed TNF-α mediated apoptosis to a similar extent as HO-1"}, {"measurement": "effect on β-cell apoptosis, pre-incubation with CO", "setting": "βTC3 cells; one hour pre-incubation, TNF-α two to three hours after end of CO treatment", "value": "prevented β-cell apoptosis"}]}, {"compound": "C=CC1=C(C)c2cc3[n-]c(cc4[n-]c(cc5nc(cc1n2)C(C)=C5C=C)c(C)c4CCC(=O)O)c(CCC(=O)O)c3C.[Fe+2]", "note": "[FePPIX, iron protoporphyrin]", "values": [{"measurement": "apoptosis in transplanted mouse hearts", "setting": "[1]; [2]", "value": "Apoptosis did not occur"}]}, {"compound": "O=c1onc2cnc3ccccc3n12", "note": "[ODQ, 1H[1,2,4]oxadiazolo[4,3-α]quinoxalin-1]", "values": [{"measurement": "effect on the anti-apoptotic effect of exogenous CO", "setting": "βTC3 cells; TNF-α, 1% CO, ODQ 100 μM, KT5823 1.6 μM", "value": "suppressed the anti-apoptotic effect of CO"}]}, {"compound": "C=Cc1c2[n-]c(c1C)/C=c1\\[n-]/c(c(C)c1C=C)=C\\c1[n-]c(c(CCC(=O)O)c1C)C=c1[n-]/c(c(C)c1CCC(=O)O)=C\\2.[Sn+4]", "note": "[SnPPIX, tin protoporphyrin IX]", "values": [{"measurement": "vascular thrombosis in graft", "setting": "[1]; CVF plus CsA-treated rats, SnPPIX", "value": "widespread vascular thrombosis of large coronary vessels"}, {"measurement": "apoptosis in transplanted mouse hearts", "setting": "[1]; [2]", "value": "widespread apoptosis of endothelial cells and cardiac myocytes"}, {"measurement": "anti-apoptotic effect of HO-1 over-expression when HO-1 activity was blocked", "setting": "βTC3 cells; TNF-α, SnPPIX 50 μM", "value": "the anti-apoptotic effect was suppressed"}]}, {"compound": "Nc1nc2c(nc(Br)n2[C@@H]2O[C@@H]3COP(=O)(O)O[C@H]3[C@H]2O)c(=O)[nH]1", "note": "[8-Br-cGMP, 8-bromoguanosine-3′-5′-cyclic-monophosphate]", "values": [{"measurement": "effect on βTC3 apoptosis", "setting": "βTC3 cells; TNF-α, 8-Br-cGMP 10 μM, no CO", "value": "suppressed βTC3 apoptosis to an extent similar to that seen with carbon monoxide"}]}]}
